Reference: PubChem BioAssay (NCI)
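Values below derive from 48-hour exposures of cells grown in 96-well plates, with endpoints linearly interpolated between the two concentrations bracketing the appropriate inhibition level. TGI: concentration producing complete growth inhibition.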

Tests used:
Experiment in all cases: NCI tumour cell line growth inhibition, 48 h
A498 renal = tested on: A498 renal
BT-549 breast = tested on: BT-549 breast
DU-145 prostate = tested on: DU-145 prostate
HS 578T breast = tested on: HS 578T breast
KM12 colon = tested on: KM12 colon
MALME-3M melanoma = tested on: MALME-3M melanoma
MDA-N = tested on: MDA-N
OVCAR-4 ovarian = tested on: OVCAR-4 ovarian
SF-295 CNS = tested on: SF-295 CNS
SN12C renal = tested on: SN12C renal
SNB-19 CNS = tested on: SNB-19 CNS
TK-10 renal = tested on: TK-10 renal

| SMILES | TGI (A498 renal) [µM] | TGI (BT-549 breast) [µM] | TGI (DU-145 prostate) [µM] | TGI (HS 578T breast) [µM] | TGI (KM12 colon) [µM] | TGI (MALME-3M melanoma) [µM] | TGI (MDA-N) [µM] | TGI (OVCAR-4 ovarian) [µM] | TGI (SF-295 CNS) [µM] | TGI (SN12C renal) [µM] | TGI (SNB-19 CNS) [µM] | TGI (TK-10 renal) [µM] |
| --- | --- | --- | --- | --- | --- | --- | --- | --- | --- | --- | --- | --- |
| COC(=O)C1=C(C(=O)OC)C2OC1C1C2C2(C)C(C)=C(C)C1(C)S2=O (stereo unspecified) | 68.4 | 25.1 | 21.1 | 51.4 | 45.4 | 20.9 | > 50.3 | 24.6 | > 84.8 | 31.1 | 66.1 | 29.8 |
| O=C1CC(c2ccco2)C2(C(=O)NC(=O)NC2=O)C(c2ccco2)C1 (stereo unspecified) | > 75 | > 75 | > 75 | > 75 | > 75 | > 75 | > 75 | > 75 | > 75 | > 75 | > 75 | > 75 |
| CC(C)=CCN1CC(C)C(=O)Nc2cc(Cl)ccc21 (stereo unspecified) | > 100 | 51.6 | > 100 | > 100 | 59.8 | 62.3 | 54.6 | 83.9 | > 100 | 33 | > 100 | 63.8 |
| COc1cc2oc(-c3ccc(O)cc3)c(OC3OC(C)C(O)C(O)C3O)c(=O)c2c(O)c1OC (stereo unspecified) | > 100 | > 100 | > 100 | > 100 | > 100 | > 100 | > 100 | > 100 | > 100 | > 100 | > 100 | > 100 |
| O=c1c2c3ccccc3[nH]c2c2cccc3c2n1CCC3 | > 100 | 91 | > 100 | > 100 | > 100 | 71.1 | > 100 | – | > 100 | > 100 | > 100 | > 100 |
| CCCN=C1CC(C)Nc2ccccc2N1 (stereo unspecified) | > 100 | > 100 | > 100 | > 100 | > 100 | > 100 | > 100 | > 100 | > 100 | > 100 | > 100 | > 100 |
| Cc1ccc(N=Nc2c3c(c(O)c4ccccc24)CCC(C)(C)O3)cc1 | 38.6 | 58.7 | 26 | 84.4 | 55.7 | 21.6 | 14.1 | 44.5 | 28.8 | 28.5 | 42.7 | 88.5 |
| C=CC(=O)c1ccc2c(c1)OCCOCCOCCOCCOCCO2 | > 100 | 37.2 | > 100 | > 100 | > 100 | 33.6 | > 100 | 36.3 | > 100 | 52.8 | > 100 | 31.1 |
| O=C(/C(=C(/Br)I)c1ccccc1)c1ccccc1 | 28.7 | 54.3 | 30.9 | > 100 | 38 | 33.2 | 81.9 | – | 69.6 | 49.9 | > 100 | 69.1 |
